Laboratory results taken from patent publication US12440478B2, “Process for preparing a potent thiazole compound, pharmaceutical formulation and uses thereof” (AHAMMUNE BIOSCIENCES PRIVATE LIMITED, priority 2018, dated 2025).

Key:
B16-F10 melanocytes = assay: MTT cell viability after tunicamycin-induced ER stress (Test 1); type: cell-based; conditions: pre-treated 6 h, then 300 ng/ml tunicamycin, 72 h; FIG. 1
Description: B16-F10 melanocytes were seeded (5000 cells per well) in 96-well plates for 24 h. Cells were then treated in quadruplicate with indicated concentration of N-[2-[2-(4-chlorophenyl)-4-thiazolyl]ethyl]-butanamide for 6 h. All the compounds dilutions were made in DMSO and the concentration of the vehicle (DMSO) was kept constant (0.1%) in each well. Cells were then treated with 300 ng/ml tunicamycin to cause ER stress and after 72 h of treatment, cells were observed under microscope and images were captured. Then MTT assay was performed to measure the cell viability. Briefly, MTT (0.5 mg/ml) was added to each well and further incubated for 1 h. Culture medium was removed and the reduced MTT (formazen) was dissolved in DMSO (100 μl per well) and measured at 570 nm. Cell growth in vehicle control was calculated as 100% and the effect of the compounds were calculated accordingly.

B16-F10 cells [1] = assay: Tyrosinase activity with tunicamycin treatment (Test 2); type: cell-based; conditions: pre-treated 6 h, tunicamycin 300 ng/ml, 72 h; % of vehicle control; FIG. 2
Description: (§1) B16-F10 cells were seeded in 24-well plates (20000 cells per well) for 24 h. Cells were then treated with indicated concentrations of N-[2-[2-(4-chlorophenyl)-4-thiazolyl]ethyl]-butanamide. After 6 h of treatment with N-[2-[2-(4-chlorophenyl)-4-thiazolyl]ethyl]-butanamide, tunicamycin (300 ng/ml) was added to the indicated wells. After 72 h of treatments, cells were washed with PBS and lysed in phosphate buffer (pH 6.8) containing 1 mM EDTA and 01% Triton X-100. Lysate was cleared by centrifugation (12000×g) for 10 min and clear lysate (20 μl) was used for tyrosinase assay. The final concentrations of tyrosinase assay mixture were as follows: phosphate buffer (50 mM, pH 6.8), L-DOPA (1 mM), MBTH (6 mM), DMF (2%). Tyrosinase activity was measured by measuring the colored complex formed at 492 nm. Tyrosinase activity was normalized to total cellular proteins measured by Bradford's reagent and represented as % of vehicle control.

melanocytes = assay: Secreted melanin in cell culture supernatant (Test 3); type: cell-based; conditions: 72 h, with tunicamycin; % of control; FIG. 3
Description: Cells were treated as indicated for 72 h. After incubation, cell culture supernatant was used for the estimation of secreted melanin. Secreted melanin was measured at 405 nm against cell culture medium as blank. Melanin levels were normalized to the total cellular proteins and represented as % of control.

B16-F10 cells [2] = assay: Tyrosinase activity with cocktail of inflammatory cytokines (Test 4); type: cell-based; conditions: pre-treated 6 h, TNFα, IL1β, IFNγ 10 ng/ml each, 72 h; FIG. 4
Description: In FIG. 4—Cocktail of inflammatory cytokines—Inflammatory cytokines cause inflammation in the system and are implicated for the vitiligo pathology. The “cocktail of inflammatory cytokines” include tumour necrosis factor-alpha (TNFα), interleukin-1 beta (IL-1B) and interferon gamma (IFNγ) at a final concentration of 10 ng/ml each.
as §1, with “(80000” for “(20000”, “a cocktail of inflammatory cytokines (TNFα, IL1β, IFNγ—10 ng/ml each)” for “tunicamycin (300 ng/ml)”, “to” for “to the”, “led to” for “was measured by measuring”, “conversion of L-DOPA into dopachrome that binds to MBTH and forms a color” for “colored”, “which is read” for “formed”

[3] = system: NHEM, A375 melanoma, B16-F10 melanoma and NIH-3T3 fibroblasts; assay: Cytotoxicity as LDH release (Test 5); type: cell-based; conditions: 24 hours treatment; FIG. 5
Description: NHEM (normal human […] melanocytes), A375 melanoma, B16-F10 melanoma and NIH-3T3 fibroblasts were seeded in 96 well plates for 24 hours. Cells were then treated with VC (DMSO, 0.1%) or with indicated concentrations of N-[2-[2-(4-chlorophenyl)-4-thiazolyl]ethyl]-butanamide for 24 hours. After incubation period, cytotoxicity was measured as % of total LDH released in the culture medium.

black guinea pigs = assay: Animal model of vitiligo, topical application to ears (Test 6); type: in vivo, guinea pig; conditions: 1% w/w topical formulation, 4 weeks, versus placebo treated ear; FIG. 6
Description: Topical formulation (1% w/w N-[2-[2-(4-chlorophenyl)-4-thiazolyl]ethyl]-butanamide) was prepared. Similarly, a placebo formulation was also prepared which was exactly similar to the N-[2-[2-(4-chlorophenyl)-4-thiazolyl]ethyl]-butanamide formulation except the active compound. The animal model of vitiligo was developed in black guinea pigs and the placebo and N-[2-[2-(4-chlorophenyl)-4-thiazolyl]ethyl]-butanamide formulations were applied on to the left and right ears respectively.

obese-diabetic mouse = conditions: multiple obese-diabetic mouse models; cited from earlier work
[4] = system: cells that expressed a mutant form of rhodopsin; conditions: mutant rhodopsin of autosomal dominant retinitis pigmentosa; protein misfolding and ER stress; cited from earlier work
[5] = system: ER (endoplasmic reticulum); conditions: cited from earlier work

CCCC(=O)NCCc1csc(-c2ccc(Cl)cc2)n1 [N-[2-[2-(4-chlorophenyl)-4-thiazolyl]ethyl]-butanamide]
cell viability (MTT) (B16-F10 melanocytes): protects melanocytes from tunicamycin induced cell death in a dose dependent manner
tyrosinase activity (B16-F10 cells [1]): increases tyrosinase activity and reverses the tunicamycin effect
melanin secretion (melanin levels) (melanocytes): increases melanin levels and reverses the tunicamycin effect
tyrosinase activity under inflammation (B16-F10 cells [2]): negates inflammation induced effect in melanocytes
cytotoxicity (% of total LDH released) [3]: no cytotoxicity
ear pigmentation (black guinea pigs): potency to cause repigmentation
B-cell function (obese-diabetic mouse): improved
glucose tolerance (obese-diabetic mouse): improved
insulin sensitivity (obese-diabetic mouse): improved
prevention of cell death [4]: effective in preventing the death of cells
ER protein folding output [5]: increasing ER protein folding output
chaperone expression [5]: chronically inducing chaperone expression
